# Literature values in patent publication US12539323B2, “Anti-psychotic composition and treatment methods” (priority 2017, dated 2026).
# Tested on: symptoms of schizophrenia
# Conditions: pooled meta-analysis of celecoxib and aspirin, eight studies
compound,measurement,setting,value
CC(=O)Oc1ccccc1C(=O)O [aspirin],Effect on negative symptoms of schizophrenia,,no benefit
same,"Hedges' g, positive symptoms",,−0.189
same,"Hedges' g, total symptoms",trend level,−0.236
